This passage reports IC50 results from patent EP1640447A1, “BIOACTIVE PEPTIDE-PRODUCING STRAINS OF i ENTEROCOCCUS FAECALIS /i , BIOACTIVE PEPTIDES AND APPLICATIONS THEREOF” (Grupo Leche Pascual S.A., priority 2003, dated 2004).

Peptide text beside a SMILES is read from it. Where only a bound is given, the exact number is not on record here.

In this test the target is T1, Angiotensin Converting Enzyme (ACE) (Oryctolagus cuniculus, UniProt P12822).
T1 sequence (P12822 34-1310): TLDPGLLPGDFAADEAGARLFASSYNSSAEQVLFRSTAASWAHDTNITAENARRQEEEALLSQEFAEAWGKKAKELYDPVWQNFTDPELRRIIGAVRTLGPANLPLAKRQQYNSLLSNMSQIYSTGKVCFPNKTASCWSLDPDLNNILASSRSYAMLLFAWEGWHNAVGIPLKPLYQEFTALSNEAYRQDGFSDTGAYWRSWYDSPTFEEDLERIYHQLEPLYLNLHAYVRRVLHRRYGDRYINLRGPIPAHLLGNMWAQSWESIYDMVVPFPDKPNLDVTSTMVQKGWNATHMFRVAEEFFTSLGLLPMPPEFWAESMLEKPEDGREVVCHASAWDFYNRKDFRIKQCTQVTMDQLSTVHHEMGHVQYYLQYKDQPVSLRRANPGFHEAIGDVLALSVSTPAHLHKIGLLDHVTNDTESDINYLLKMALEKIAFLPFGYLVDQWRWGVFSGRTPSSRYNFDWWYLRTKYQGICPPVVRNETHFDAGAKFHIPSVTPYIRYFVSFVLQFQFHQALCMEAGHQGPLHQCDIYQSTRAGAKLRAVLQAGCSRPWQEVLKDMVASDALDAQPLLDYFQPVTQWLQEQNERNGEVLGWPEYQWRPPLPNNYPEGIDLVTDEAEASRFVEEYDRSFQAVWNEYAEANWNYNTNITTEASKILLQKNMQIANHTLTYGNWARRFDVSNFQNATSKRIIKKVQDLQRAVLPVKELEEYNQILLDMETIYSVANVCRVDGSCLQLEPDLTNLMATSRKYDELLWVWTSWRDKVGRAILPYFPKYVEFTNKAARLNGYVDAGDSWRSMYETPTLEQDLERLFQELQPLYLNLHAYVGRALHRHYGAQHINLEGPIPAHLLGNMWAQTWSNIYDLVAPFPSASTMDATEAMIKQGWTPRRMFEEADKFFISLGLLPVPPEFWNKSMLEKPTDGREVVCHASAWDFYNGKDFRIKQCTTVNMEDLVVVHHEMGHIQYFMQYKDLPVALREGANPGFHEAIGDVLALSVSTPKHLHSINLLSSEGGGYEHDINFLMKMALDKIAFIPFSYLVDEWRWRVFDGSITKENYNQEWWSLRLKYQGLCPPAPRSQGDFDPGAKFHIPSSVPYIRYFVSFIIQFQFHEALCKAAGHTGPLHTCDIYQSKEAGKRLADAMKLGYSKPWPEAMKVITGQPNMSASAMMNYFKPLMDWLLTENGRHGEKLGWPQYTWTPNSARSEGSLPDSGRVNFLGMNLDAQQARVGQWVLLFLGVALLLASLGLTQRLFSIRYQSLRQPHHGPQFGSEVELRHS
The test can be described thus: Measurement of ACE inhibitor activity (ACEI activity), Hip-His-Leu substrate, hippuric acid read at 228 nm. It counts as biochemical. As to conditions: chemically synthesized peptides, Table 4. The procedure: The measurement of ACE activity was performed according to the method disclosed by Cushman and Cheung (Cushman DW, Cheung HS. 1971. Biochem Pharmacol 20:1637-1648) and subsequently modified by Nakamura (Nakamura Y, Yamamoto N, Sakai K et al. 1995. J Dairy Sci 78:777-783). This method is based on the use of Hippuryl-L-Histidyl-L-Leucine (Hip-His-Leu) as substrate given that the action of the ACE on such substrate produced the release of hippuric acid, easily quantifiable by spectrophotometry by absorbance reading at 228 nm (A228) after extraction thereof with ethyl acetate. If the sample to be tested is added to the reaction tube along with the ACE and the substrate, the ACEI activity of the sample tested can be determined. As is mentioned in Example 1.1, during the selection of bacteria the sample used to measure ACEI activity was the supernatant of the fermented milk, subjected to centrifugation at 20,000 x g for 10 minutes and subsequently diluted to half with distilled water.
The substrate solution was formed by 0.1 M sodium borate, 300 mM sodium chloride, 5 mM Hip-His-Leu (Sigma, St. Louis, MO), pH 8.3 at 37°C. The ACE enzyme solution (Sigma, St. Louis, MO) was adjusted to an activity of 0.1 U/mL.
The different reaction mixtures were incubated for 30 minutes at 37°C and subsequently 150 µL of 1 M hydrochloric acid were added in order to stop the reaction and subsequently 1,000 µL, of ethyl acetate in order to extract the hippuric acid. The resulting mixtures were vigorously stirred for 20 seconds and centrifuged at 1,500 x g for 10 minutes in order to separate and collect from each tube the upper phase (ethyl acetate). 750 µL of each upper phase were pipetted into individual tubes, which were introduced in a bath of boiling water under a fume extraction hood until the solvent evaporated. Once the ethyl acetate was eliminated 800 µL of distilled water were added to each tube to dissolve the dry residue smoothly and without stirring. Finally the content of each tube was transferred to quartz cuvettes to read their absorbance at 228 nm. The inhibition percentage (% Inhibition) was calculated by applying the following formula: %Inhibition = ((A)−(B))/((C)−(D)) [formula] wherein (A), (B), (C) and (D) correspond to the absorbances at 228 nm of the solutions indicated in Table 2.
To perform this fermentation example, E. faecalis CECT 5727, E. faecalis CECT 5728, E. faecalis CECT 5826 or E faecalis CECT 5827 may be used indistinctly. The substrate is skimmed bovine milk powder reconstituted in water at 10% and autoclaved ([…] for 20 minutes). First a starter liquid was made, inoculating the substrate with a culture loop such that the initial population was 10^5-10^7 CFU/mL and incubating for 24 hours. 3% by weight of this culture was used as inoculum for the second fermentation which was maintained for 48 hours. Both fermentations were carried out at 30°C. The fermenting process was stopped by pasteurizing the fermented milk [75°C for 1 minute] and the final pasteurized product was used to measure ACEI activity according to the protocol described in Example 1.2, although in this case the fermented milks were subjected to the pasteurization treatment mentioned before being centrifuged at 20,000 x g for 10 minutes. […] Therefore, the final reaction volume is always 160 µL [100 µL of the substrate solution, 20 µL of the ACE solution and 40 µL of the sample to be tested (supernatant at the corresponding dilution with distilled water)].
Regarding `CC(C)C[C@H](NC(=O)[C@@H]1CCCN1C(=O)[C@H](CC(C)C)NC(=O)[C@H](Cc1cnc[nH]1)NC(=O)[C@@H](N)CC(C)C)C(=O)N1CCC[C@H]1C(=O)O` [SEQ. ID. NO: 1, LHLPLP] (H-LHLPLP-OH), the IC50 (as a rule, the concentration needed to halve the response being measured) is 5.4 µM.
In the case of `CC(C)C[C@H](NC(=O)[C@@H](N)C(C)C)C(=O)NCC(=O)N1CCC[C@H]1C(=O)N[C@H](C(=O)N[C@@H](CCCNC(=N)N)C(=O)NCC(=O)N1CCC[C@H]1C(=O)N[C@@H](Cc1ccccc1)C(=O)N1CCC[C@H]1C(=O)O)C(C)C` [SEQ. ID. NO: 2, VLGPVRGPFP] (H-VLGPVRGPFP-OH), half-maximal inhibition (IC50) was put at 137 µM. Compared with the last molecule, the IC50 is about 25-fold higher.
Next, `CC(C)C[C@H](NC(=O)[C@@H]1CCCN1C(=O)[C@H](CC(C)C)NC(=O)[C@@H]1CCCN1C(=O)[C@H](CC(C)C)NC(=O)[C@H](Cc1c[nH]cn1)NC(=O)[C@@H](N)CC(C)C)C(=O)O` [SEQ. ID. NO: 3, LHLPLPL] (H-LHLPLPL-OH): 433 µM.
Next, `CC[C@H](C)[C@H](NC(=O)[C@@H](NC(=O)[C@@H]1CCCN1C(=O)[C@H](Cc1ccccc1)NC(=O)[C@@H]1CCCN1C(=O)CNC(=O)[C@H](CCCNC(=N)N)NC(=O)[C@@H](N)C(C)C)[C@@H](C)CC)C(=O)N[C@H](C(=O)O)C(C)C` [SEQ. ID. NO: 4, VRGPFPIIV] (H-VRGPFPIIV-OH): 630 µM; `CC(C)[C@H](N)C(=O)N[C@H](C(=O)N[C@H](C(=O)N1CCC[C@H]1C(=O)N1CCC[C@H]1C(=O)N[C@@H](Cc1ccccc1)C(=O)O)C(C)C)C(C)C` [SEQ. ID. NO: 5, VVVPPF] (H-VVVPPF-OH): over 700 µM; `CC(C)C[C@H](N)C(=O)N[C@H](C(=O)N[C@@H](CCC(N)=O)C(=O)N[C@H](C(=O)N1CCC[C@H]1C(=O)N[C@H](C(=O)N[C@H](C(=O)N[C@H](C(=O)N1CCC[C@H]1C(=O)N1CCC[C@H]1C(=O)N[C@@H](Cc1ccccc1)C(=O)O)C(C)C)C(C)C)C(C)C)[C@@H](C)O)[C@@H](C)O` [SEQ. ID. NO: 6, LTQTPVVVPPF] (H-LTQTPVVVPPF-OH): over 700 µM.
`CC[C@H](C)[C@H](NC(=O)[C@@H](NC(=O)[C@@H]1CCCN1C(=O)[C@H](Cc1ccccc1)NC(=O)[C@@H]1CCCN1C(=O)CNC(=O)[C@H](CCCNC(=N)N)NC(=O)[C@@H](NC(=O)[C@@H]1CCCN1C(=O)CNC(=O)[C@H](CC(C)C)NC(=O)[C@@H](N)C(C)C)C(C)C)[C@@H](C)CC)C(=O)N[C@H](C(=O)O)C(C)C` [SEQ. ID. NO: 7, VLGPVRGPFPIIV] (H-VLGPVRGPFPIIV-OH) showed an IC50 of over 700 µM.
On to `CC[C@H](C)[C@H](NC(=O)[C@@H]1CCCN1C(=O)CNC(=O)[C@@H]1CCCN1C(=O)[C@H](Cc1ccccc1)NC(=O)[C@@H]1CCCN1C(=O)[C@H](Cc1ccc(O)cc1)NC(=O)[C@@H](NC(=O)[C@@H](N)CC(C)C)C(C)C)C(=O)N1CCC[C@H]1C(=O)N[C@@H](CC(N)=O)C(=O)N[C@@H](CO)C(=O)N[C@@H](CC(C)C)C(=O)N1CCC[C@H]1C(=O)N[C@@H](CCC(N)=O)C(=O)N[C@@H](CC(N)=O)C(=O)N[C@H](C(=O)N1CCC[C@H]1C(=O)N1CCC[C@H]1C(=O)O)[C@@H](C)CC` [SEQ. ID. NO: 8, LVYPFPGPIPNSLPQNIPP] (H-LVYPFPGPIPNSLPQNIPP-OH), for which 5.3 µM corresponded to half-maximal inhibition (IC50).
